Read-outs that look alike come from different tables or passages of the source.
Columns and labels:
[1] = molecular target: T1, CYP 2D6 (Homo sapiens, UniProt P10635); assay: Reversible CYP inhibition in human liver microsomes, CYP 2D6; assay type: in vitro ADME; details: bufuralol, read-out: Cyp microsome IC50, 2D6
T1 construct: individual CYPs in a pool of human liver microsomes; from tissue; host or cells: pooled human liver microsomes
Experimental: (§1) Reversible inhibition of cytochrome P450s (CYPs) in human liver microsomes was tested using prototypical, isoform-selective activity assays for individual CYPs in a pool of human liver microsomes (i.e., testosterone for CYP 3A4, phenacetin for CYP 1A2, bufuralol for CYP 2D6, S-mephenytoin for CYP 2C19, and diclofenac for CYP 2C9). The assay provides 8-point IC50 determinations in the range of 0.010 to 50 μM drug concentrations for major isoforms of CYP450.

[2] = Hepatocyte stability assay, cynomolgus monkey; assay type: in vitro ADME; details: hepatocytes
Experimental: (§2) Example 7. In Vitro Metabolic Stability of Isoxazoline Compounds in cd-1 Mouse, sd Rat, Beagle Dog, Cynomolgus Monkey and Human Cryopreserved Hepatocytes
(§3) Isoxazoline compounds (at 1 μM) were incubated with cryopreserved hepatocytes (0.5×10^6 cells per mL) in duplicates (n=2) at 37° C. using 96-well plate format.
(§4) Time points were 0, 15, 30, 60 and 90 minutes in separate plates and medium control samples without cells at 0 and 90 minutes were also incubated. At each time point the reaction was stopped by adding organic solution containing internal standard (IS).
(§5) Positive controls 7-ethoxycoumarin and 7-hydroxycoumarin were included in parallel.
(§6) The samples were analyzed by LC-MS/MS. Disappearance of the test compound was assessed based on peak area ratios of analyte/IS (no standard curve).
(§7) Intrinsic clearance and t½ values were then calculated.

[3] = molecular target: hERG channels (Homo sapiens, UniProt Q12809); assay: hERG channel manual patch clamp assay (CHO-K1 cells); assay type: cell-based
Experimental: Cells: Stable CHO-K1 cells expressing hERG channels (from AVIVA Biosciences) were used in the assay.
Patch Clamp recording: The recordings were performed on conventional patch clamp (Axon Multiclamp 700B, Digidata 1440, pCLAMP 10, Molecular Devices Corporation or HEKA EPC10/Patchmaster system, HEKA Elektronik Corporation) at room temperature, using the whole-cell patch clamp techniques. The composition of external solution was (mM): HEPES 10, NaCl 145, KCl 4, CaCl2 2, MgCl2 1, Glucose 10, pH to 7.4 with 1N NaOH, osmolarity to 290-300 mOsm. Filtered and kept at 4° C. The composition of internal solution was (mM): KOH 31.25, KCl 120, CaCl2 5.374, MgCl2 1.75, EGTA 10, HEPES 10, Na2-ATP 4, pH to 7.2 with 1N KOH, osmolarity to 280-290 mOsm. Filtered and kept at −20° C.
For conventional patch clamp, 35 mm culture dishes or recording chambers containing CHO-hERG cells were placed on the stage of an inverted/upright microscope and continuously perfused with external solutions from a perfusion system (RSC-160 Rapid solution Changer, BioLogic or OctaFlow I, ALA Scientific Instruments Inc).
Test compounds were dissolved in 100% DMSO to make stock solutions for each test concentration, and then diluted into external solutions to achieve final concentration for testing. Final DMSO concentration was not more than 0.3%.
Voltage command protocol: From the holding potential of −80 mV, the voltage was first stepped to 60 mV for 850 ms to open hERG channels. Then the voltage was stepped back down to −50 mV for 1275 ms, causing a “rebound” or tail current, which was measured and collected for data analysis. Finally, the voltage was stepped back to the holding potential (−80 mV). This voltage command protocol was repeated every 15000 msec. This command protocol was performed continuously during the test (vehicle control, test compounds).
Compound effect (% inhibition) was determined by difference in current amplitude before and after the application of test compounds. IC50 values were determined from concentration-response curves that were obtained with Hill fitting.

[4] = Lipophilicity, ALogD at pH 7.4; assay type: physicochemical
[5] = molecular target: T2, CYP 3A4 (Homo sapiens, UniProt P08684); assay: Reversible CYP inhibition in human liver microsomes, CYP 3A4; assay type: in vitro ADME
T2 construct: individual CYPs in a pool of human liver microsomes; from tissue; host or cells: pooled human liver microsomes
Experimental: as §1

[6] = molecular target: T3, CYP 2C19 (Homo sapiens, UniProt P33261); assay: Reversible CYP inhibition in human liver microsomes, CYP 2C19; assay type: in vitro ADME; details: S-mephenytoin, read-out: Cyp microsome IC50, 2C19
T3 construct: individual CYPs in a pool of human liver microsomes; from tissue; host or cells: pooled human liver microsomes
Experimental: as §1

[7] = Solubility at pH 6.8; assay type: physicochemical; details: pH 6.8, aqueous buffer
[8] = molecular target: T4, CYP 1A2 (Homo sapiens, UniProt P05177); assay: Reversible CYP inhibition in human liver microsomes, CYP 1A2; assay type: in vitro ADME
T4 construct: individual CYPs in a pool of human liver microsomes; from tissue; host or cells: pooled human liver microsomes
T4 sequence (P05177 1-516): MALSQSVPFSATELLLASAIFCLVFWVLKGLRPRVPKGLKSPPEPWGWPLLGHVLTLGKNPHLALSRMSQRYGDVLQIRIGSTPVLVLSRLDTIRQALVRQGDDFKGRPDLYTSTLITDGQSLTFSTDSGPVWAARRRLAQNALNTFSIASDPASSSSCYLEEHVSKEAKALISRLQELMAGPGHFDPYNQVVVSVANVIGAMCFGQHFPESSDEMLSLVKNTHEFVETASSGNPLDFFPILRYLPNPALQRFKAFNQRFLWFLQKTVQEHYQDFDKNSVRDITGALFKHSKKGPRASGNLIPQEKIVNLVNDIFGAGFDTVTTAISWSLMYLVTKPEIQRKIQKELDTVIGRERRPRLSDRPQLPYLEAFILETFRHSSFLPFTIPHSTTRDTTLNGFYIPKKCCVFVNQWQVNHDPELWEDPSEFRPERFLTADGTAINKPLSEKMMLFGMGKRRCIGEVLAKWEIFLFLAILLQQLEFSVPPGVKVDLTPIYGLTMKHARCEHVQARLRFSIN
Experimental: as §1

[9] = Hepatocyte stability assay, mouse; assay type: in vitro ADME
Experimental: as §2, §3, §4, §5, §6, §7

[10] = Hepatocyte stability assay, dog; assay type: in vitro ADME; details: Beagle, hepatocytes
Experimental: as §2, §3, §4, §5, §6, §7

[11] = cynomolgus monkey (cy), 1 μM, read-out: Hepatocyte stability (t½)
[12] = CD-1, hepatocytes, mouse (ms), 1 μM, read-out: Hepatocyte stability (t½)
[13] = dog (d), 1 μM, read-out: Hepatocyte stability (t½)

T1 sequence (P10635 whole entry): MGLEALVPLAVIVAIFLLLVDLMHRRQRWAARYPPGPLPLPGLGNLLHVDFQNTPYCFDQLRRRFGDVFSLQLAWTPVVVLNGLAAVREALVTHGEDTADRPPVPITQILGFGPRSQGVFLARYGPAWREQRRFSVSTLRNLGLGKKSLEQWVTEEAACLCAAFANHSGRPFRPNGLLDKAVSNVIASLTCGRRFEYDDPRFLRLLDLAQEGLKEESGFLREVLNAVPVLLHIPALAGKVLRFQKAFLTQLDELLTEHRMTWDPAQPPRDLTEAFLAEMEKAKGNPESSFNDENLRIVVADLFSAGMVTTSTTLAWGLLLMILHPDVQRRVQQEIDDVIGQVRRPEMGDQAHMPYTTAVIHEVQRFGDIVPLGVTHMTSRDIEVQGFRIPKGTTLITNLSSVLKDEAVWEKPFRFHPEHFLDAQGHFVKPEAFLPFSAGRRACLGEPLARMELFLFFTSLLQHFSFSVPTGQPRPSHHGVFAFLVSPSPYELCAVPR
T3 sequence (P33261 whole entry): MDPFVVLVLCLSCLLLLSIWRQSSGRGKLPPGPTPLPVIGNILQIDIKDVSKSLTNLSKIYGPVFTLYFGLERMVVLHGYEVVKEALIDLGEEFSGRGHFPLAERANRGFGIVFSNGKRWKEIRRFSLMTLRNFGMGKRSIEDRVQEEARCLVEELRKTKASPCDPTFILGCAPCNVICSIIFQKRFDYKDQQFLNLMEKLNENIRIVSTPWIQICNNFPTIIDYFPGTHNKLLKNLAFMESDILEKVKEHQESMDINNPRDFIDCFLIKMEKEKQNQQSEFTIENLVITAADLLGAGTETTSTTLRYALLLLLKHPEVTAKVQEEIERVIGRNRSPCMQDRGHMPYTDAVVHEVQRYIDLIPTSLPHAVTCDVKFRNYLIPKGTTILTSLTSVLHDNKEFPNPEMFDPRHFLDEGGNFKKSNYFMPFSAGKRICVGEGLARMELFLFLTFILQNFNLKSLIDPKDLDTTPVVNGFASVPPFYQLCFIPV
Sequence of hERG channels (Q12809 whole entry): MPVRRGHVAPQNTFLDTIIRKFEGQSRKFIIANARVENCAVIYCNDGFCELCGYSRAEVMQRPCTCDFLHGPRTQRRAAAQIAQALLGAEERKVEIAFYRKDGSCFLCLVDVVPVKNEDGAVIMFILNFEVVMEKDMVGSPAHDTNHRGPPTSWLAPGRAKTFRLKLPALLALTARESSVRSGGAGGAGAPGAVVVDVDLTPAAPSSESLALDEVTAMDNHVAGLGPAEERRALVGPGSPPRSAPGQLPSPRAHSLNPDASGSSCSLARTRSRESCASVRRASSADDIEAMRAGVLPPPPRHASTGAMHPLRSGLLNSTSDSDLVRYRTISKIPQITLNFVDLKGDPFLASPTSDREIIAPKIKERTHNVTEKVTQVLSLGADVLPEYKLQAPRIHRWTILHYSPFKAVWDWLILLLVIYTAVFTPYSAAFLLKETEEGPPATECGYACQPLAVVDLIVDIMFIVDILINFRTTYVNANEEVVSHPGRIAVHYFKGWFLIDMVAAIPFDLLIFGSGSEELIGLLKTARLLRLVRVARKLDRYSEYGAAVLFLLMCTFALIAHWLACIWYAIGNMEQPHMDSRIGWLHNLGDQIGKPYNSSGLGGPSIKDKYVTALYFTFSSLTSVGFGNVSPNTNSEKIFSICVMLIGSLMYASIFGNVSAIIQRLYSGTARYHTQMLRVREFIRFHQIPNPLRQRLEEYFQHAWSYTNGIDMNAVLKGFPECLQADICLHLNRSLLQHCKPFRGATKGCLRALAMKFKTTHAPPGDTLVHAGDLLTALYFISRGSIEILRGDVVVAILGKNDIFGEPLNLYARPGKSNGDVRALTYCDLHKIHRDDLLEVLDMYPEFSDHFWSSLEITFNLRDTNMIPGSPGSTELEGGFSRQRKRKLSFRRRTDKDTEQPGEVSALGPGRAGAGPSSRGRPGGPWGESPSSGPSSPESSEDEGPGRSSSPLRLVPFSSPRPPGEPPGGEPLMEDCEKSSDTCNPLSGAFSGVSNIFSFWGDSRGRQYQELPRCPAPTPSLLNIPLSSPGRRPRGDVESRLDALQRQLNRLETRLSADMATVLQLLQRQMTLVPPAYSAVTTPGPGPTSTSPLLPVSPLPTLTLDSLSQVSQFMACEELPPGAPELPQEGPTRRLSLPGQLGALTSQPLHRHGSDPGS
T2 sequence (P08684 whole entry): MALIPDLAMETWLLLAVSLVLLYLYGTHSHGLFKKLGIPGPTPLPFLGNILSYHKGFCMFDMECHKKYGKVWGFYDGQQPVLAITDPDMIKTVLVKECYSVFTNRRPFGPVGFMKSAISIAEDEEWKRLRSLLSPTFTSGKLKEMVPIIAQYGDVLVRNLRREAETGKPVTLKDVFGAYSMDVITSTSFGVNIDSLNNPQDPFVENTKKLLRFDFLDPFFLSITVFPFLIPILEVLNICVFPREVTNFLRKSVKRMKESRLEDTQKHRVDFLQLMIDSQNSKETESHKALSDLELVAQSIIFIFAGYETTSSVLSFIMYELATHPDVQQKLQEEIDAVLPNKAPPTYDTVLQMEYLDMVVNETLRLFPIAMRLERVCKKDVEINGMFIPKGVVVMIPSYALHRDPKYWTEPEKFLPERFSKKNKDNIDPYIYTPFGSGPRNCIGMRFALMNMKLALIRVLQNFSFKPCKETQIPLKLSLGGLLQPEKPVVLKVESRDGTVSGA

SMILES	IC50 [1] [µM]	half-life at 1 μM [2, 11] [min]	hERG inhibition (manual patch) ([3]; at 5 uM)	ALogD (pH 7.4) [4]	IC50 [5] [µM]	IC50 [6] [µM]	solubility ([7]; read-out: Solubility (pH 6.8)) [µM]	IC50 [8] [µM]	half-life at 1 μM [9, 12] [min]	half-life at 1 μM [10, 13] [min]	IC50 [3] [µM]	half-life at 1 μM ([2]; cynomolgus monkey) [min]	solubility [7] [µM]	IC50 ([8]; human liver microsomes, phenacetin, read-out: Cyp microsome IC50, 1A2) [µM]	half-life at 1 μM ([9]; CD-1, mouse, hepatocytes) [min]	half-life at 1 μM ([10]; dog) [min]
O=C(CNC(=O)c1ccc(C2=NO[C@](c3cc(Cl)cc(C(F)(F)F)c3)(C(F)(F)F)C2)c2ccccc12)NCC(F)(F)F (racemic) [Afoxolaner, afoxolaner]	> 50	> 217	0.9% ± 2.5%	6.1	> 50	3.1	< 1	> 50	> 217	> 217	–	–	–	–	–	–
O=C(CNC(=O)c1ccc(C2=NO[C@@](c3cc(Cl)cc(C(F)(F)F)c3)(C(F)(F)F)C2)c2ccccc12)NCC(F)(F)F [(S)-afoxolaner]	19	50	–	6.1	> 50	1.1	< 1	> 50	64	32	> 30	–	–	–	–	–
O=C(CNC(=O)c1ccc(C2=NO[C@@](c3cc(Cl)cc(Cl)c3)(C(F)(F)F)C2)c2ccccc12)NCC(F)(F)F [(S)-4-(5-(3,5-dichlorophenyl)-5-(trifluoromethyl)-4,5-dihydroisoxazol-3-yl)-N-(2-oxo-2-((2,2,2-trifluoroethyl)amino)ethyl)-1-naphthamide]	17.2	–	–	5.8	> 50	0.6	–	–	–	–	19.9	42	< 1	> 50	59	41
